Measurements from patent publication US20100009920A1, “TTK AS TUMOR MARKER AND THERAPEUTIC TARGET FOR LUNG CANCER” (priority 2006, published 2010).
Entries after “also recorded” stand apart in the source; their conditions may differ.

Key:
A549 cells [1] = assay: MTT assay of A549 cells treated with cell-permeable 11R-EGFR peptides; format: cell-based, human; conditions: A549 cells, 2.5, 5 and 7.5 micro-mol/L, 5 days
Experimental: 17˜31 amino acid peptide sequences corresponding to a part of EGFR protein that contained possible TTK-interacting region were covalently linked at its NH2 terminus to a membrane transducing 11 poly-arginine sequence (Hayama, S, et al. Cancer Res. 66, 10339-48 (2006), Futaki S, et al. J Biol. Chem. 276, 5836-5840 (2001)). Three cell-permeable peptides were synthesized:
Peptides were purified by preparative reverse-phase high-pressure liquid chromatography. A549 cells were incubated with the 11R peptides at the concentration of 2.5, 5, and 7.5 micro-mol/L for 5 days. The medium was exchanged at every 48 hours at the appropriate concentrations of each peptide and the viability of cells was evaluated by MTT assay at 5 days after the treatment.

TTK [2] = assay: In vitro kinase assay, phosphorylation of active-rhEGFR by recombinant TTK; format: biochemical, human; conditions: active-rhEGFR pre-treated with inhibitor, recombinant TTK present
Description: The full-length cDNA of TTK was subcloned into pFastBac HT vector. The recombinant shuttle vector was transformed into the baculovirus genome (bacmid DNA) in DH10Bac competent cells (Invitrogen) by using Tn7 site-specific transposition according to the minufacture's instructions for the Bac-to-Bac expression system (Invitrogen). The recombinant bacmid DNA was isolated, purified, transfected into Sf9 cells (Invitrogen) (recombinant baculovirus), and used for next infection. Log-phase Sf-9 cells were infected with recombinant baculovirus at a multiplicity of infection (MOI) of 1, and then infected Sf-9 cells were grown in suspension at 27° C. for 72 hours. Extracts of Sf-9 cells were collected and the His fusion proteins were purified using HiTrap HP column (GE Healthcare Bio-sciences) using standard protocols. […] TTK-KD was cloned into pGEX6T vector (GE Healthcare Bio-sciences). GST fusion protein was expressed in E. coli stain BL21 and purified by Glutathione Sepharose 4B (GE Healthcare Bio-sciences) using standard protocols. […]
The EGFR tyrosine phosphorylation sites were further evaluated by TTK using GST-tagged proteins containing various cytoplasmic region of EGFR as substrates (EGFR-DEL1, −DEL2, and −DEL3; FIG. 4e). […]

A549 cells [3] = assay: Microscopic observation of cell morphology (phase contrast images); format: cell-based, human; conditions: non-treated cells as control
Experimental: (§1) The oligo-siRNAs (Dharmacon, Inc., Lafayette, Colo.) ([…]) were transfected into appropriate lung-cancer cell lines using 30 micro-1 of Lipofectamine 2000 (Invitrogen, Carlsbad, Calif.) following the manufacturer's protocol. The ribonucleotide sequences corresponding to following sequences were used as the oligo-siRNA.
The endogenous association between TTK and EGFR in lung cancer cells was also investigated by immunoprecipitaion experiment using extracts from A549 cells, and the interaction between these two proteins regardless the EGF-stimulation was detected (FIG. 4b). To further examine the relevance of TTK to EGFR signaling, TTK or EGFR function in A549 cells were suppressed and cell morphology was microscopically observed.

[4] = test system: catalytically-active recombinant GST-tagged human EGFR (active-rhEGFR); assay: In vitro kinase assay, autophosphorylation of active-rhEGFR (western blot with anti-phospho-tyrosine antibodies); format: biochemical; conditions: in the presence of ATP, no recombinant TTK
LC319 and A549 cells = assay: MTT and colony-formation assays after transfection of siRNA-expression plasmids; format: cell-based, human
Experimental: (§2) A vector-based RNA interference (RNAi) system, psiH1BX3.0, had previously established to direct the synthesis of siRNAs in mammalian cells (Suzuki et al., 2003, 2005; Kato et al, 2005; Furukawa et al, 2005). 10 micro-g of siRNA-expression vector were transfected into NSCLC cell lines LC319 and A549 both of which over-expressed TTK endogenously, using 30 micro-1 of Lipofectamine 2000 (Invitrogen). The transfected cells were cultured for five days in the presence of appropriate concentrations of geneticin (G418), after which cell numbers and viability were measured by Giemsa staining and triplicate MTT assays. The target sequences of the synthetic oligonucleotides for RNAi were as follows: control 1 (Luciferase: Photinus pyralis luciferase gene), 5′-CGTACGCGGAATACTTCGA-3′ (SEQ ID NO: 9); control 2 (Scramble: chloroplast Euglena gracilis gene coding for 5S and 16S rRNAs),

TTK [5] = assay: Semiquantitative RT-PCR of TTK expression after transfection of siRNA-expression plasmids; format: cell-based, human; conditions: LC319 and A549 cells, versus control siRNAs (LUC, SCR)
Experimental: Total RNA was extracted from cultured cells and clinical tissues using Trizol reagent (Life Technologies, Inc.) according to the manufacturer's protocol. Extracted RNAs and normal human tissue poly(A) RNAs were treated with DNase I (Nippon Gene) and were reverse-transcribed using oligo(dT)20 primer and SuperScript II reverse transcriptase (Invitrogen). Semiquantitative RT-PCR experiments were carried out with the following synthesized gene-specific primers or with beta-actin (ACTB)-specific primers as an internal control: TTK,
as §2, with “The target sequences of the synthetic oligonucleotides for RNAi were as follows: control 1 (Luciferase: Photinus pyralis luciferase gene), 5′-CGTACGCGGAATACTTCGA-3′ (SEQ ID NO: 9); control 2 (Scramble: chloroplast Euglena gracilis gene coding for 5S and 16S rRNAs),” left out

HEK293 cells [6] = assay: Matrigel invasion assay of TTK- or mock-stable transfectants of HEK293 transfected with RNAi-EGFR; format: cell-based
HEK293 cells [7] = assay: MTT assay of TTK- or mock-stable transfectants of HEK293 transfected with RNAi-EGFR; format: cell-based
Experimental: as §1
TTK-expressing stable transfectants were established according to a standard protocol. Using FuGENE 6 Transfection Reagent (Roche Diagnostics), we transfected HEK293 and NIH3T3 cells with plasmids expressing TTK (pCAGGS-n3FH-TTK) or mock plasmids (pCAGGS-n3FH). Transfected cells were cultured in DMEM containing 10% FCS and G418, then individual colonies were trypsinized and screened for stable transfectants by a limiting-dilution assay. Expression of TTK was determined in each clone by RT-PCR, western blotting, and immunostaining. HEK293 or NIH3T3 transfectants that stably expressed TTK were seeded onto 6-well plates (5×10^4 cells/well), and maintained in medium containing 10% FCS and 0.4 mg/ml G418 for 7 days. At each time point, cell proliferation was evaluated by the MTT assay using Cell Counting Kits (WAKO). All experiments were done in triplicate.

RRRRRRRRRRR-GGG-FRELIIEFSKMARDPQRYL (An artificially synthesised dominant negative peptide) [11R-EGFR937-955]
cell viability (MTT assay) (A549 cells [1]): most effective; also recorded: significant decreases

RRRRRRRRRRR-GGG-ISSILEKGERLPQPPICTI (An artificially synthesised dominant negative peptide) [11R-EGFR899-917]
cell viability (MTT assay) (A549 cells [1]): significant decreases

COc1cc2ncnc(Nc3cccc(Cl)c3)c2cc1OC [AG1478, tryphostin 4-(3-chloroanilino)-6,7-dimethoxyquinazoline]
phosphorylation of active-rhEGFR by TTK (TTK [2]): not inhibited
phosphorylation of active-rhEGFR by TTK (TTK [2]; listed as AG1378): detected in the presence of recombinant TTK
cell morphology (A549 cells [3]): became much larger with multiple nuclei
autophosphorylation of active-rhEGFR on tyrosine [4]: inhibited
autophosphorylation of active-rhEGFR on tyrosine ([4]; listed as AG1378): not detected

5′-ATCACGGACCAGTACATCT-3′ [si-TTK-2]
growth-suppressive effect (LC319 and A549 cells): modest growth-suppressive effect
amount of TTK transcript (TTK [5]): weaker reduction

RRRRRRRRRRR-GGG-DVYMIMVKCWMIDADSRPK (An artificially synthesised dominant negative peptide) [11R-EGFR918-936]
cell viability (MTT assay) (A549 cells [1]): significant decreases

GTAACAAGCTCACGCAGTTTT (listed as DNA, chemistry not given here) [RNAi-EGFR (oligo)]
TTK-induced cell invasion through Matrigel (HEK293 cells [6]; TTK-transfected HEK293 cells, P<0.0001): reduced to near the basal level
Invasion of the control cells through Matrigel (HEK293 cells [6]; mock-transfected HEK293 cells): slightly reduced
cell morphology (A549 cells [3]): became much larger with multiple nuclei
TTK-induced cell proliferation (HEK293 cells [7]; HEK293 transfectants stably expressing TTK, P=0.0032): significantly reduced
proliferation of HEK293 control cells (HEK293 cells [7]; control cells transfected with mock vector, P=0.2439): scarcely reduced

RRRRRRRRRRR-GGG-EFMAELLRYFRPQSKRDII (RRRRRRRRRRRGGGEFMAELLRYFRPQSKRDII) [scramble peptides, Scramble peptides derived from 11R-EGFR937-955, synthesized as a control, reference compound]
cell viability (MTT assay) (A549 cells [1]): no growth-suppressive effect

5′-ACAGTGTTCCGCTAAGTGA-3′ [si-TTK-1]
cell viability (MTT assay) (LC319 and A549 cells; versus two control siRNAs): reduced significantly
colony numbers (colony-formation assay) (LC319 and A549 cells; versus two control siRNAs): reduced significantly
amount of TTK transcript (TTK [5]): significantly decreased
